# In US20260217765A1, “NOVEL ANTIMICROBIAL PEPTIDE DESIGNED FROM DUCK-DERIVED ANTIMICROBIAL PEPTIDE ANDUSE THEREOF” (INDUSTRY-ACADEMIC COOPERATION FOUNDATION, CHOSUN UNIVERSITY, priority 2023, published 2026):
# Peptide text beside a SMILES is read from it.
# Columns and labels:
# [1] = in vitro; type: cell-based; details: human, HaCaT keratinocyte cells, Cell Viability
# Protocol: To evaluate the cytotoxicity of the peptides prepared in <Example 1>, toxicity was measured using a human keratinocyte cell line (HaCaT cell line, Dr. N. E. Fusenig, Heidelberg, Germany).
# Specifically, HaCaT cells cultured in DMEM medium containing 10% fetal bovine serum (FBS) were seeded at a density of 2×10^5 cells/well into a microtiter plate and incubated for 24 hours. Then, peptides dCATH, dCATH-A1, dCATH-A2, dCATH-A3, dCATH-A4, dCATH-A5, dCATH-A6, and dCATH-A7 were added to each well at concentrations of 3.13, 6.25, 12.5, 25.0, 50.0, and 100.0 μM/well, followed by incubation for 24 hours in a 5% CO2 incubator. After 24 hours, 100 μL of a reaction solution containing 0.5 mg/mL MTT (Thiazolyl Blue Tetrazolium Bromide) dissolved in phosphate-buffered saline (PBS) was added to each well and reacted for 4 hours. After removing the supernatant, 200 μL of DMSO (dimethyl sulfoxide) was added to dissolve the formed MTT crystals, and absorbance at 570 nm was measured to determine cell viability.
# [2] = tested on: Acinetobacter baumannii_isolate 2 (antibiotic-resistant); type: cell-based, Acinetobacter baumannii; details: isolate 2 (antibiotic-resistant)
# Source text: (§1) To compare the antimicrobial activity of the peptides prepared in <Example 1>, the minimum inhibitory concentration (MIC), […] measured. Here, the minimal inhibitory concentration (MIC) refers to the lowest concentration of a substance that prevents visible bacterial growth.
# (§2) Specifically, the bacterial strains listed in Table 2 below were obtained and cultured in media suitable for each strain until the mid-log phase. The cultures were then diluted to a concentration of 2×10^4 cells/100 μL and prepared in microtiter plates (Nunc, USA). Subsequently, serial 2-fold dilutions of the peptides prepared in Example 1 were prepared, and 10 μL of each dilution was added to the wells, and the plates were incubated at 37° C. for 18 hours. Absorbance at 600 nm was measured using a microtiter plate reader (Merck ELISA reader, Germany) to determine the MIC values for each bacterial strain. The parent peptide dCATH was used as a control.
# [3] = tested on: Acinetobacter baumannii_isolate 24 (antibiotic-resistant); type: cell-based, Acinetobacter baumannii; details: isolate 24 (antibiotic-resistant)
# Source text: as §1, §2
# [4] = tested on: Acinetobacter baumannii_isolate 7 (antibiotic-resistant); type: cell-based, Acinetobacter baumannii; details: isolate 7 (antibiotic-resistant)
# Source text: as §1, §2
# [5] = tested on: Acinetobacter baumannii_isolate21 (antibiotic-resistant); type: cell-based, Acinetobacter baumannii; details: isolate21 (antibiotic-resistant)
# Source text: as §1, §2
# [6] = tested on: Acinetobacter baumannii_isolate 14 (antibiotic-resistant); type: cell-based, Acinetobacter baumannii; details: isolate 14 (antibiotic-resistant)
# Source text: as §1, §2
# [7] = tested on: Acinetobacter baumannii_isolate 9 (antibiotic-resistant); type: cell-based, Acinetobacter baumannii; details: isolate 9 (antibiotic-resistant)
# Source text: as §1, §2
# [8] = tested on: Acinetobacter baumannii_isolate15 (antibiotic-resistant); type: cell-based, Acinetobacter baumannii; details: isolate15 (antibiotic-resistant)
# Source text: as §1, §2
# [9] = tested on: Acinetobacter baumannii_isolate 17 (antibiotic-resistant); type: cell-based, Acinetobacter baumannii; details: isolate 17 (antibiotic-resistant)
# Source text: as §1, §2
# [10] = tested on: Acinetobacter baumannii_isolate 5 (antibiotic-resistant); type: cell-based, Acinetobacter baumannii; details: isolate 5 (antibiotic-resistant)
# Source text: as §1, §2
# [11] = tested on: Acinetobacter baumannii_isolate 13 (antibiotic-resistant); type: cell-based, Acinetobacter baumannii; details: isolate 13 (antibiotic-resistant)
# Source text: as §1, §2
# [12] = tested on: Acinetobacter baumannii_isolate 12 (antibiotic-resistant); type: cell-based, Acinetobacter baumannii; details: isolate 12 (antibiotic-resistant)
# Source text: as §1, §2
# [13] = tested on: Acinetobacter baumannii_isolate 6 (antibiotic-resistant); type: cell-based, Acinetobacter baumannii; details: isolate 6 (antibiotic-resistant)
# Source text: as §1, §2
# [14] = tested on: Acinetobacter baumannii_isolate 3 (antibiotic-resistant); type: cell-based, Acinetobacter baumannii; details: isolate 3 (antibiotic-resistant)
# Source text: as §1, §2
# [15] = tested on: Acinetobacter baumannii_isolate 18 (antibiotic-resistant); type: cell-based, Acinetobacter baumannii; details: isolate 18 (antibiotic-resistant)
# Source text: as §1, §2
# [16] = tested on: Acinetobacter baumannii KCTC 2508; type: cell-based; details: KCTC 2508, 24 h
# Protocol: Specifically, among the bacterial strains listed in Table 2, those known to form biofilms well (Acinetobacter baumannii KCTC 2508, Acinetobacter baumannii isolate 10, and isolate 14) were cultured in the appropriate media to the mid-log phase and diluted to a cell concentration of 5×10^4 cells/100 µL, followed by inoculation into microplates (SPL). Subsequently, the peptides prepared in <Example 1> were serially 10-fold diluted with 10 mM sodium phosphate buffer (pH 7.2), and 10 μL of each dilution was added to each well. The plates were then incubated at 37° C. for 24 hours. After completely removing the supernatant, the plates were fixed with 100% methanol for 15 minutes, stained with crystal violet staining solution for 1 hour, washed three times, and then the stain was solubilized with 95% ethanol. Absorbance was measured at 595 nm using a microplate reader to determine the MBIC values for each bacterial strain.
# [17] = tested on: Bacillus cereus KCTC 2508; type: cell-based
# Source text: as §1, §2
# [18] = tested on: Listeria monocytogenes KCTC 3710; type: cell-based
# Source text: as §1, §2
# [19] = tested on: Pseudomonas aeruginosa ATCC 27853; type: cell-based
# Source text: as §1, §2
# [20] = tested on: Acinetobacter baumannii KCTC 1017; type: cell-based; details: for MIC: KCTC 1017
# Source text: as §1, §2
# [21] = tested on: Escherichia coli ATCC 25922; type: cell-based
# Source text: as §1, §2
# [22] = tested on: Staphylococcus aureus ATCC 25923; type: cell-based; details: for MIC: ATCC 25923
# Source text: as §1, §2
structure (smiles),measurement,setting,value
CC[C@H](C)[C@H](NC(=O)[C@H](C)NC(=O)[C@H](CC(C)C)NC(=O)[C@H](CCCCN)NC(=O)[C@@H](NC(=O)[C@H](CC(C)C)NC(=O)[C@H](CCC(N)=O)NC(=O)[C@H](C)NC(=O)[C@H](C)NC(=O)[C@H](CCCNC(=N)N)NC(=O)[C@@H](N)CCCCN)C(C)C)C(=O)N[C@@H](CCCCN)C(=O)N[C@H](C(=O)N[C@@H](Cc1ccc(O)cc1)C(=O)N[C@@H](CCCNC(=N)N)C(=O)N[C@@H](C)C(=O)N[C@@H](Cc1c[nH]c2ccccc12)C(=O)N[C@@H](CCCCN)C(=O)N[C@@H](CCCNC(=N)N)C(=O)N[C@@H](CCCNC(=N)N)C(N)=O)[C@@H](C)CC [dCATH-A4] (H-KRAAQLVKLAIKIYRAWKRR-NH2; N-terminus assumed),"viability at 24 h, 3.13 µM",[1],90.9%
same,"viability at 24 h, 6.25 µM",[1],90.2%
same,"viability at 24 h, 12.5 µM",[1],58%
same,"viability at 24 h, 25 µM",[1],5.59%
same,"viability at 24 h, 50 µM",[1],2.49%
same,"viability at 24 h, 100 µM",[1],1.36%
same,MIC,[2],2 µM
same,MIC,[3],2 µM
same,MIC,[4],2 µM
same,MIC,[5],2 µM
same,MIC,[6],2 µM
same,MIC,[7],2 µM
same,MIC,[8],2 µM
same,MIC,[9],2 µM
same,MIC,[10],2 µM
same,MIC,[11],2 µM
same,MIC,[12],2 µM
same,MIC,[13],1 µM
same,MIC,[14],2 µM
same,MIC,[15],2 µM
same,MBIC,[16],4 µM
same,MIC,[17],2 µM
same,MIC,[18],2 µM
same,MIC,[19],2 µM
same,MIC,[20],2 µM
same,MIC,[21],2 µM
same,MIC,[22],2 µM
CC[C@H](C)[C@H](NC(=O)[C@H](C)NC(=O)[C@H](CCCCN)NC(=O)[C@H](CCCCN)NC(=O)[C@@H](NC(=O)[C@H](CC(C)C)NC(=O)[C@H](CCC(N)=O)NC(=O)[C@H](C)NC(=O)[C@H](C)NC(=O)[C@H](CCCNC(=N)N)NC(=O)[C@@H](N)CCCCN)C(C)C)C(=O)N[C@@H](CCCCN)C(=O)N[C@H](C(=O)N[C@@H](Cc1ccc(O)cc1)C(=O)N[C@@H](CCCNC(=N)N)C(=O)N[C@@H](C)C(=O)N[C@@H](Cc1c[nH]c2ccccc12)C(=O)N[C@@H](CCCCN)C(=O)N[C@@H](CCCNC(=N)N)C(=O)N[C@@H](CCCNC(=N)N)C(N)=O)[C@@H](C)CC [dCATH-A5] (H-KRAAQLVKKAIKIYRAWKRR-NH2; N-terminus assumed),"viability at 24 h, 3.13 µM",[1],100%
same,"viability at 24 h, 6.25 µM",[1],92.3%
same,"viability at 24 h, 12.5 µM",[1],95.1%
same,"viability at 24 h, 25 µM",[1],58%
same,"viability at 24 h, 50 µM",[1],8.27%
same,"viability at 24 h, 100 µM",[1],3.71%
same,MIC,[2],1 µM
same,MIC,[3],2 µM
same,MIC,[4],1 µM
same,MIC,[5],1 µM
same,MIC,[6],1 µM
same,MIC,[7],1 µM
same,MIC,[8],1 µM
same,MIC,[9],1 µM
same,MIC,[10],1 µM
same,MIC,[11],1 µM
same,MIC,[12],1 µM
same,MIC,[13],1 µM
same,MIC,[14],1 µM
same,MIC,[15],1 µM
same,MBIC,[16],2 µM
same,MIC,[17],1 µM
same,MIC,[18],1 µM
same,MIC,[19],1 µM
same,MIC,[20],1 µM
same,MIC,[21],1 µM
same,MIC,[22],1 µM
CC[C@H](C)[C@H](NC(=O)[C@H](C)NC(=O)[C@H](CCCCN)NC(=O)[C@H](CCCCN)NC(=O)[C@@H](NC(=O)[C@H](CC(C)C)NC(=O)[C@H](CCC(N)=O)NC(=O)[C@H](C)NC(=O)[C@H](C)NC(=O)[C@H](CCCNC(=N)N)NC(=O)[C@@H](N)CCCCN)C(C)C)C(=O)N[C@@H](CCCCN)C(=O)N[C@@H](CCCCN)C(=O)N[C@@H](Cc1ccc(O)cc1)C(=O)N[C@@H](CCCNC(=N)N)C(=O)N[C@@H](C)C(=O)N[C@@H](Cc1c[nH]c2ccccc12)C(=O)N[C@@H](CCCCN)C(=O)N[C@@H](CCCNC(=N)N)C(=O)N[C@@H](CCCNC(=N)N)C(N)=O [dCATH-A6] (H-KRAAQLVKKAIKKYRAWKRR-NH2; N-terminus assumed),"viability at 24 h, 3.13 µM",[1],98.9%
same,"viability at 24 h, 6.25 µM",[1],100%
same,"viability at 24 h, 12.5 µM",[1],94.7%
same,"viability at 24 h, 25 µM",[1],98%
same,"viability at 24 h, 50 µM",[1],97.8%
same,"viability at 24 h, 100 µM",[1],92%
same,MIC,[2],2 µM
same,MIC,[3],1 µM
same,MIC,[4],1 µM
same,MIC,[5],1 µM
same,MIC,[6],2 µM
same,MIC,[7],1 µM
same,MIC,[8],1 µM
same,MIC,[9],1 µM
same,MIC,[10],1 µM
same,MIC,[11],1 µM
same,MIC,[12],1 µM
same,MIC,[13],2 µM
same,MIC,[14],1 µM
same,MIC,[15],1 µM
same,MBIC,[16],2 µM
same,MIC,[17],2 µM
same,MIC,[18],2 µM
same,MIC,[19],2 µM
same,MIC,[20],1 µM
same,antimicrobial activity compared to the control peptide dCATH,[20]; against Acinetobacter baumannii,significantly superior antimicrobial activity
same,MIC,[21],2 µM
same,MIC,[22],0.5 µM
same,antimicrobial activity compared to the control peptide dCATH,[22]; against Staphylococcus aureus strains,notably superior activity
